Measurements from patent US6780872B2, “Tricyclic dihydropyrazolone and tricyclic dihydroisoxazolone potassium channel openers” (Abbott Laboratories, priority 2000, dated 2004).

Test system: guinea-pig urinary bladder (GPB) cells
Test: Membrane hyperpolarization (MHP) assay, DiBAC(4)3 dye, FLIPR
Assay type: cell-based
Conditions: Cavia porcellus; for Emax: maximal steady-state hyperpolarization in GPB cells, normalized to response with 10 μM P1075 (=100%); for EC50: membrane hyperpolarization in GPB cells, concentration eliciting 50% of the maximal response of the test sample
Method: Compounds were evaluated for potassium channel opening activity using primary cultured guinea-pig urinary bladder (GPB) cells.
For the preparation of urinary bladder smooth muscle cells, urinary bladders were removed from male guinea-pigs (Hartley, Charles River, Wilmington, Mass.) weighing 300-400 g and placed in ice-cold Ca^2+-free Krebs solution (Composition, mM: KCl, 2.7; KH2PO4, 1.5; NaCl, 75; Na2HPO4, 9.6; Na2HPO4.7H2O, 8; MgSO4, 2; glucose, 5; HEPES, 10; pH 7.4). Cells were isolated by enzymatic dissociation as previously described with minor modifications in (Klockner, U. and Isenberg, G., Pflugers Arch. 1985, 405, 329-339), hereby incorporated by reference. The bladder was cut into small sections and incubated in 5 mL of the Kreb's solution containing 1 mg/mL collagenase (Sigma, St. Louis, Mo.) and 0.2 mg/mL pronase (Calbiochem, La Jolla, Calif.) with continuous stirring in a cell incubator for 30 minutes. The mixture was then centrifuged at 1300×g for 5 minutes, and the pellet resuspended in Dulbecco's PBS (GIBCO, Gaithersburg, Md.) and recentrifuged to remove residual enzyme. The cell pellet was resuspended in 5 mL growth media (composition: Dulbecco's modified Eagle's medium supplemented with 10% fetal bovine serum, 100 units/mL penicillin, 100 units/mL streptomycin and […] amphotericin B) and further dissociated by pipetting the suspension through a flame-polished Pasteur pipette and passing it through a polypropylene mesh membrane (Spectrum, Houston, Tex.). The cell density was adjusted to 100,000 cells/mL by resuspension in growth media. Cells were plated in clear-bottomed black 96-well plates (Packard) for membrane potential studies at a density of 20,000 cells/well and maintained in a cell incubator with 90% air: 10% CO2 until confluent. Cells were confirmed to be of smooth muscle type by cytoskeletal staining using a monoclonal mouse anti human-α-smooth muscle actin (Biomeda, Foster City, Calif.).
Functional activity at potassium channels was measured by evaluating changes in membrane potential using the bis-oxonol dye DiBAC(4)3 (Molecular Probes) in a 96-well cell-based kinetic assay system, Fluorescent Imaging Plate Reader (FLIPR) (K. S. Schroeder et al., J. Biomed. Screen., v. 1 pp. 7581 (1996)), hereby incorporated by reference. DiBAC(4) is an anionic potentiometric probe which partitions between cells and extracellular solution in a membrane potential-dependent manner. With increasing membrane potential (for example, K^+ depolarization), the probe further partitions into the cell; this is measured as an increase in fluorescence due to dye interaction with intracellular lipids and proteins. Conversely, decreasing membrane potential (hyperpolarization by potassium channel openers) evokes a decrease in fluorescence.
Confluent guinea-pig urinary bladder cells cultured in black clear-bottomed 96-well plates were rinsed twice with […] assay buffer (composition, mM: HEPES, 20; NaCl, 120; KCl, 2; CaCl2, 2; MgCl2, 1; glucose, 5; pH 7.4 at 25° C.) containing 5 μM DiBAC(4) and incubated with […] of the buffer in a cell incubator for 30 minutes at 37° C. to ensure dye distribution across the membrane. After recording the baseline fluorescence for 5 minutes, the reference or test compounds, prepared at 10 times the concentration in the assay buffer, were added directly to the wells. Changes in fluorescence were monitored for an additional 25 minutes. Hyperpolarization responses were corrected for any background noise and were normalized to the response observed with 10 μM of the reference compound P1075, N″-cyano-N-(tert-pentyl)-N′-(3-pyridinyl)guanidine, which was assigned as 100%. P1075 is a potent opener of smooth muscle KATP channels (Quast et al., Mol. Pharmacol., v. 43 pp. 474-481 (1993)) and was prepared using the procedures described in (Manley, J. Med. Chem. (1992) 35, 2327-2340), hereby incorporated by reference. […]

| Compound | EC50 | Emax |
| --- | --- | --- |
| Cn1[nH]c(=O)c2c1NC1=C(C(=O)CC1)C2c1ccc(F)c(Br)c1 (stereo not drawn) [Example 1, 4-(3-bromo-4-fluorophenyl)-1-methyl-1,2,4,6,7,8-hexahydrocyclopenta[b]pyrazolo[4,3-e]pyridine-3,5-dione] | 0.55 µM | 91% |
| O=C1CCC2=C1C(c1ccc(F)c(Br)c1)c1c([nH][nH]c1=O)N2 (stereo not drawn) [Example 2, 4-(3-bromo-4-fluorophenyl)-1,2,4,6,7,8-hexahydrocyclopenta[b]pyrazolo[4,3-e]pyridine-3,5-dione] | 2.77 µM | 90% |
| O=C1CCCC2=C1C(c1ccc(F)c(Br)c1)c1c([nH][nH]c1=O)N2 (stereo not drawn) [Example 3, 4-(3-bromo-4-fluorophenyl)-4,7,8,9-tetrahydro-1H-pyrazolo[3,4-b]quinoline-3,5(2H,6H)-dione] | 1.72 µM | 82% |
| CCn1[nH]c(=O)c2c1NC1=C(C(=O)CC1)C2c1ccc(F)c(Br)c1 (stereo not drawn) [Example 4, 4-(3-bromo-4-fluorophenyl)-1-ethyl-1,2,4,6,7,8-hexahydrocyclopenta[b]pyrazolo[4,3-e]pyridine-3,5-dione] | 0.27 µM | 103% |
| CC(C)(C)n1[nH]c(=O)c2c1NC1=C(C(=O)CC1)C2c1ccc(F)c(Br)c1 (stereo not drawn) [Example 5, 4-(3-bromo-4-fluorophenyl)-1-tert-butyl-1,2,4,6,7,8-hexahydrocyclopenta[b]pyrazolo[4,3-e]pyridine-3,5-dione] | > 10 µM | – |
| O=C1CCC2=C1C(c1ccc(F)c(Br)c1)c1c(n(-c3ccccn3)[nH]c1=O)N2 (stereo not drawn) [Example 6, 4-(3-bromo-4-fluorophenyl)-1-(2-pyridinyl)-1,2,4,6,7,8-hexahydrocyclopenta[b]pyrazolo[4,3-e]pyridine-3,5-dione] | > 10 µM | – |
| Cn1[nH]c(=O)c2c1NC1=C(C(=O)CC1)C2c1ccc(OC(F)(F)F)cc1 (stereo not drawn) [Example 7, 1-methyl-4-[4-(trifluoromethoxy)phenyl]-1,2,4,6,7,8-hexahydrocyclopenta[b]pyrazolo[4,3-e]pyridine-3,5-dione] | > 10 µM | – |
| Cn1[nH]c(=O)c2c1NC1=C(C(=O)CC1)C2c1ccc(F)c(C(F)(F)F)c1 (stereo not drawn) [Example 9, 4-[4-fluoro-3-(trifluoromethyl)phenyl]-1-methyl-1,2,4,6,7,8-hexahydrocyclopenta[b]pyrazolo[4,3-e]pyridine-3,5-dione] | 0.68 µM | 89% |
| Cn1[nH]c(=O)c2c1NC1=C(C(=O)CC1)C2c1ccc(F)c(I)c1 (stereo not drawn) [Example 12, 4-(4-fluoro-3-iodophenyl)-1-methyl-1,2,4,6,7,8-hexahydrocyclopenta[b]pyrazolo[4,3-e]pyridine-3,5-dione] | 0.32 µM | 101% |
| Cn1[nH]c(=O)c2c1NC1=C(C(=O)CC1)C2c1ccc(F)c(-c2ccco2)c1 (stereo not drawn) [Example 14, 4-[4-fluoro-3-(2-furyl)phenyl]-1-methyl-1,2,4,6,7,8-hexahydrocyclopenta[b]pyrazolo[4,3-e]pyridine-3,5-dione] | > 10 µM | – |
| Cn1[nH]c(=O)c2c1NC1=C(C(=O)CC1)C2c1csc([N+](=O)[O-])c1 (stereo not drawn) [Example 15, 1-methyl-4-(5-nitro-3-thienyl)-1,2,4,6,7,8-hexahydrocyclopenta[b]pyrazolo[4,3-e]pyridine-3,5-dione] | 7.7 µM | 58% |
| Cn1[nH]c(=O)c2c1NC1=C(C(=O)CC1)C2c1ccc2nsnc2c1 (stereo not drawn) [Example 17, 4-(2,1,3-benzothiadiazol-5-yl)-1-methyl-1,2,4,6,7,8-hexahydrocyclopenta[b]pyrazolo[4,3-e]pyridine-3,5-dione] | > 10 µM | – |
| Cn1[nH]c(=O)c2c1NC1=C(C(=O)CCC1)C2c1ccc(F)c(Br)c1 (stereo not drawn) [Example 18, 4-(3-bromo-4-fluorophenyl)-1-methyl-4,7,8,9-tetrahydro-1H-pyrazolo[3,4-b]quinoline-3,5(2H,6H)-dione] | 1.97 µM | 80% |
| Cn1[nH]c2c(c1=O)C(c1ccc(F)c(Br)c1)C1=C(CCC1=O)N2 (stereo not drawn) [Example 19, 4-(3-bromo-4-fluorophenyl)-2-methyl-1,2,4,6,7,8-hexahydrocyclopenta[b]pyrazolo[4,3-e]pyridine-3,5-dione] | > 10 µM | – |
| O=C1CCC2=C1C(c1ccc(F)c(Br)c1)c1c([nH]n(-c3ccccc3)c1=O)N2 (stereo not drawn) [Example 20, 4-(3-bromo-4-fluorophenyl)-2-phenyl-1,2,4,6,7,8-hexahydrocyclopenta[b]pyrazolo[4,3-e]pyridine-3,5-dione] | > 10 µM | 48% |
| Cn1[nH]c(=O)c2c1NC1=C(C2c2ccc(F)c(Br)c2)S(=O)(=O)CC1 (stereo not drawn) [Example 21, 4-(3-bromo-4-fluorophenyl)-1-methyl-1,2,4,6,7,8-hexahydro-3H-pyrazolo[3,4-b]thieno[2,3-e]pyridin-3-one 5,5-dioxide] | > 10 µM | – |

Now from value to molecule, other results behind:

| EC50 | Compound | Emax |
| --- | --- | --- |
| 0.48 µM | Cc1ccc(C2C3=C(CCC3=O)Nc3c2c(=O)[nH]n3C)cc1Br (stereo not drawn) [Example 8, 4-(3-bromo-4-methylphenyl)-1-methyl-1,2,4,6,7,8-hexahydrocyclopenta[b]pyrazolo[4,3-e]pyridine-3,5-dione] | 83% |
| 2.35 µM | Cn1[nH]c(=O)c2c1NC1=C(C(=O)CC1)C2c1ccc(Cl)c([N+](=O)[O-])c1 (stereo not drawn) [Example 10, 4-(4-chloro-3-nitrophenyl)-1-methyl-1,2,4,6,7,8-hexahydrocyclopenta[b]pyrazolo[4,3-e]pyridine-3,5-dione] | 90% |
| 0.53 µM | Cc1ccc(C2C3=C(CCC3=O)Nc3c2c(=O)[nH]n3C)cc1I (stereo not drawn) [Example 11, 4-(3-iodo-4-methylphenyl)-1-methyl-1,2,4,6,7,8-hexahydrocyclopenta[b]pyrazolo[4,3-e]pyridine-3,5-dione] | 109% |
| 0.67 µM | Cn1[nH]c(=O)c2c1NC1=C(C(=O)CC1)C2c1ccc(Cl)c(Cl)c1 (stereo not drawn) [Example 13, 4-(3,4-dichlorophenyl)-1-methyl-1,2,4,6,7,8-hexahydrocyclopenta[b]pyrazolo[4,3-e]pyridine-3,5-dione] | 101% |
| > 10 µM | Cn1[nH]c(=O)c2c1NC1=C(C(=O)CC1)C2c1ccc2nonc2c1 (stereo not drawn) [Example 16, 4-(2,1,3-benzoxadiazol-5-yl)-1-methyl-1,2,4,6,7,8-hexahydrocyclopenta[b]pyrazolo[4,3-e]pyridine-3,5-dione] | – |
| 0.33 µM | Cn1[nH]c(=O)c2c1NC1=C(C(=O)C(C)(C)CC1)C2c1ccc(F)c(Br)c1 (stereo not drawn) [Example 22, 4-(3-bromo-4-fluorophenyl)-1,6,6-trimethyl-4,7,8,9-tetrahydro-1H-pyrazolo[3,4-b]quinoline-3,5(2H,6H)-dione] | 105% |
| 0.07 µM | Cn1[nH]c(=O)c2c1NC1=C(C(=O)C(C)(C)CC1)C2c1ccc(F)c(I)c1 (stereo not drawn) [Example 23, 4-(4-fluoro-3-iodophenyl)-1,6,6-trimethyl-4,7,8,9-tetrahydro-1H-pyrazolo[3,4-b]quinoline-3,5(2H,6H)-dione] | 90% |
| 0.18 µM | Cn1[nH]c(=O)c2c1NC1=C(C(=O)C(C)(C)CC1)C2c1ccc(Cl)c(Cl)c1 (stereo not drawn) [Example 24, 4-(3,4-dichlorophenyl)-1,6,6-trimethyl-4,7,8,9-tetrahydro-1H-pyrazolo[3,4-b]quinoline-3,5(2H,6H)-dione] | 82% |
| 3.2 µM | Cn1[nH]c(=O)c2c1NC1=C(C(=O)C(C)(C)CC1)C2c1ccc(F)c(-c2ccco2)c1 (stereo not drawn) [Example 25, 4-[4-fluoro-3-(2-furyl)phenyl]-1,6,6-trimethyl-4,7,8,9-tetrahydro-1H-pyrazolo[3,4-b]quinoline-3,5(2H,6H)-dione] | 78% |
